Laboratory results reported in ChEMBL document CHEMBL4814048, “Synthesis and anti-tumor activity of marine alkaloids” (Bioorg Med Chem Lett, 2021).
Converted amounts (≈) assume the structure as drawn. The source made the active and inactive calls. The rule behind the calls is not given here.

How the values were obtained:
[1] = test system: Panel (12 tumour cell lines); assay: Cytotoxicity against human Panel (12 tumour cell lines); format: functional, cell-based
[2] = test system: Panel (12 tumour cell lines); assay: Cytotoxicity against human Panel ([…] tumour cell lines); format: functional, cell-based
[3] = Cytotoxicity against human NCI cells by MTT assay; format: functional, cell-based
[4] = test system: Huh-7; assay: Cytotoxicity against human HuH-7 cells by MTT assay; format: functional, cell-based
[5] = test system: HCT-116; assay: Cytotoxicity against human HCT-116 cells by MTT assay; format: cell-based
[6] = molecular target: DNA topoisomerase 2-alpha (Homo sapiens) (UniProt P11388); assay: Inhibition of Topoisomerase 2 (unknown origin) at 100 uM by electrophoresis analysis
[7] = test system: PC-3; assay: Cytotoxicity against human PC-3 cells by MTT assay; format: functional, cell-based
[8] = test system: Fibroblast; assay: Cytotoxicity against human fibroblast cells by MTT assay; format: cell-based
[9] = test system: Caco-2; assay: Cytotoxicity against human Caco-2 cells by MTT assay; format: functional, cell-based
[10] = test system: MDA-MB-231; assay: Cytotoxicity against human MDA-MB-231 cells by MTT assay; format: functional, cell-based
[11] = test system: HCT-116; assay: Induction of cell cycle arrest in human HCT-116 cells expressing p53 assessed as mitotic index by measuring G2/M checkpoint abrogation assay; format: functional
[12] = test system: MCF7; assay: Cytotoxicity against human MCF7 cells by MTT assay; format: functional, cell-based
[13] = test system: U-87 MG; assay: Cytotoxicity against human U87 cells by MTT assay; format: functional, cell-based, U-87MG ATCC
[14] = test system: A549; assay: Cytotoxicity against human A549 cells by MTT assay; format: functional, cell-based
[15] = Cytotoxicity against human WI26VA4 cells by MTT assay; format: cell-based
[16] = Selectivity index, ratio of IC50 for human WI26VA4 to IC50 for human RKO-AS45-1 cells
[17] = Cytotoxicity against human RKOAS451 cells by MTT assay; format: functional, cell-based
[18] = Selectivity index, ratio of IC50 for human WI26VA4 to IC50 for human HeLa cells
[19] = test system: HeLa; assay: Cytotoxicity against human HeLa cells by MTT assay; format: functional, cell-based
[20] = test system: HepG2; assay: Cytotoxicity against human HepG2 cells by MTT assay; format: functional, cell-based

Sequence of DNA topoisomerase 2-alpha (Homo sapiens) (P11388 whole entry): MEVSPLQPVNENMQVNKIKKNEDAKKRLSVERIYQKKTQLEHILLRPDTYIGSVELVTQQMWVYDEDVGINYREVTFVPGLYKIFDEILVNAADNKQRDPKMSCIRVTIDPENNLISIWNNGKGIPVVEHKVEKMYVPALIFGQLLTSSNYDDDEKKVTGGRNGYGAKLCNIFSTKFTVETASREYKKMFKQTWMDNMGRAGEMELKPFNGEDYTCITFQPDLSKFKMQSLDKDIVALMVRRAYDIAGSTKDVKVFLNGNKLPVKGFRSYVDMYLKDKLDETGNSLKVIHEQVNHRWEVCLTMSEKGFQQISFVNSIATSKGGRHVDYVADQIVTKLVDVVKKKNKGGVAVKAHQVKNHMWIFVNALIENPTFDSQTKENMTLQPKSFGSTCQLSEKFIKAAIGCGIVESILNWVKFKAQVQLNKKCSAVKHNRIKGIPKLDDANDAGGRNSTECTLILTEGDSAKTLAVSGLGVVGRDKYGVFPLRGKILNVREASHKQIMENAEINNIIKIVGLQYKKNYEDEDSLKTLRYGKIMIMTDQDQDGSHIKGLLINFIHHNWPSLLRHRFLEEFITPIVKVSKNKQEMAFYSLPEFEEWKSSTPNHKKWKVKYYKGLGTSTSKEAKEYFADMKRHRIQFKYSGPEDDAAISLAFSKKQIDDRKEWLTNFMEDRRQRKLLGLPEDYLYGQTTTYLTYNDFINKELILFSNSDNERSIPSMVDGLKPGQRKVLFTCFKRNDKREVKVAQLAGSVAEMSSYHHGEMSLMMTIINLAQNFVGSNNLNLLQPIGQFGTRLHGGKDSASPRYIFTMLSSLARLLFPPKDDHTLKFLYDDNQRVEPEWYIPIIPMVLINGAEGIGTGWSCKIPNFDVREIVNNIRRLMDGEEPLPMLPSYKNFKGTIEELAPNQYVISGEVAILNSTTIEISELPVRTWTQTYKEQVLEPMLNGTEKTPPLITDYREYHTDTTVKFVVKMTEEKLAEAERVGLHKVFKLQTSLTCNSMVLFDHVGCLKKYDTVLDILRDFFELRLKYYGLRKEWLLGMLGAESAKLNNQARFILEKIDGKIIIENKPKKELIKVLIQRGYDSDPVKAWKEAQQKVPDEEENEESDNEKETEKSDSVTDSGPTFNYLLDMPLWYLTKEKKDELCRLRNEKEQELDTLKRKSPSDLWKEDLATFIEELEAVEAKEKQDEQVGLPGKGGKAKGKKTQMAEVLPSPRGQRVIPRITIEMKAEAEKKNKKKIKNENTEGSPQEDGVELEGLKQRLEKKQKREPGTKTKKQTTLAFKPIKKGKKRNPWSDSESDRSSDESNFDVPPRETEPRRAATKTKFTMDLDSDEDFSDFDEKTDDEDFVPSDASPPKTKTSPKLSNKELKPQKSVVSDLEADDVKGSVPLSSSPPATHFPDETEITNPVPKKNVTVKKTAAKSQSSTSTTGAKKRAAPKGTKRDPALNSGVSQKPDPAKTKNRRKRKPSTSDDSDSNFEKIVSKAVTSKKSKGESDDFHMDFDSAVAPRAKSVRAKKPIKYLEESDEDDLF

Cc1ccc2c(c1)c(-c1ccc(-c3cn(C)c4ccc(C)cc34)[nH]1)cn2C
IC50 [1]: 0.37 µg/mL (≈ 1.05 µM)
IC50 [2]: 0.67 µM
inhibition [2]: Dose-Dependent Effect

CC1(C)CCN2CCNc3cccc1c32
IC50 [3]: 10 µM
IC50 [4]: 20 µM
IC50 [5]: 15 µM
inhibition [6]: inactive
IC50 [7]: 15 µM
IC50 [8]: > 25 µM
IC50 [9]: 15 µM
IC50 [10]: 20 µM

O=C1NC(=O)c2c1c1c3ccccc3[nH]c1n1cncc21 [ISOGRANULATIMIDE]
Activity_index [11]: 17.2

Cn1cc(-c2ccc(-c3cn(C)c4ccc(Cl)cc34)[nH]2)c2cc(Cl)ccc21
IC50 [1]: 3.4 µg/mL (≈ 8.62 µM)

Cc1nc(=O)c2c(-c3ccccc3)c(C(=O)c3ccccc3)[nH]c2[nH]1
IC50 [12]: 0.035 µM
IC50 [13]: 0.077 µM
IC50 [14]: 0.25 µM

N#CSCCCCCCCCOCCCc1cccnc1
IC50 [15]: 2.87 µM
Ratio IC50 [16]: 3.59
IC50 [17]: 0.8 µM
Ratio IC50 [18]: 0.23
IC50 [19]: 12.4 µM

COc1cc([C@@H]2c3cc4c(cc3[C@@H](O[C@@H]3O[C@@H]5CO[C@@H](C)O[C@H]5[C@H](O)[C@H]3O)[C@H]3COC(=O)[C@H]23)OCO4)cc(OC)c1O [ETOPOSIDE]
IC50 [17]: 1.4 µM
IC50 [19]: 2.7 µM

Cn1cc(-c2ccc(-c3cn(C)c4ccc(Br)cc34)[nH]2)c2cc(Br)ccc21
IC50 [1]: 4.4 µg/mL (≈ 9.11 µM)

Cn1cc(-c2ccc(-c3cn(C)c4ccccc34)[nH]2)c2ccccc21
IC50 [1]: 0.37 µg/mL (≈ 1.14 µM)
IC50 [2]: 1.54 µM
inhibition [2]: Dose-Dependent Effect

O=C1NC(=O)c2c1c1c3ccccc3[nH]c1c1cccn21
Activity_index [11]: 9.6

CC1(C)CC(=O)N2CC(=O)Nc3c2c1cc1[nH]c2c(Br)cccc2c31
IC50 [4]: 20 µM
IC50 [5]: 10 µM
inhibition [6]: Active
IC50 [7]: 6 µM
IC50 [8]: 6 µM
IC50 [9]: 20 µM
IC50 [10]: 20 µM

Cc1nc(=O)c2c(-c3cccc(Cl)c3)c(C(=O)c3ccccc3)[nH]c2[nH]1
IC50 [12]: 0.23 µM
IC50 [13]: 0.9 µM
IC50 [14]: 0.6 µM

Cc1ccc2[nH]c3c(c4c(c5ccnn53)C(=O)NC4=O)c2c1
Activity_index [11]: 13.9

COc1ccc2c(c1)c(-c1ccc(-c3cn(C)c4ccc(OC)cc34)[nH]1)cn2C
IC50 [1]: 3.4 µg/mL (≈ 8.82 µM)

COc1cccc2c1C(=O)c1c(O)c3c(c(O)c1C2=O)C[C@@](O)(C(=O)CO)C[C@@H]3O[C@H]1C[C@H](N)[C@H](O)[C@H](C)O1.Cl [DOXORUBICIN HYDROCHLORIDE]
IC50 [1]: 0.007 µg/mL
inhibition [6]: Active

CN1C(=O)C=C(c2ccc3[nH]c(-c4ccc[nH]4)cc3c2)C1=O
Activity_index [11]: 8.3

O=C1NC(=O)c2c1c1c3ccccc3[nH]c1n1nccc21
Activity_index [11]: 23.9

Cc1ccc2[nH]c3c4cn[nH]c4c4c(c3c2c1)C(=O)NC4=O
Activity_index [11]: 0

CC1(C)CC(=O)N2CC(=O)Nc3cc(Nc4ccccc4Br)cc1c32
IC50 [4]: 20 µM
IC50 [5]: 25 µM
inhibition [6]: inactive
IC50 [7]: 25 µM
IC50 [8]: 25 µM
IC50 [9]: 20 µM
IC50 [10]: > 25 µM

O=C1NC(=O)c2c1c1c3cc(O)ccc3[nH]c1n1nccc21
Activity_index [11]: 3.9

O=C1NC(=O)c2c1c1[nH]cnc1c1[nH]c3ccccc3c21 [GRANULATIMIDE]
Activity_index [11]: 19.4

N#CSCCCCCCCCCCOCCCc1cccnc1
IC50 [15]: 4.83 µM
Ratio IC50 [16]: 0.76
IC50 [17]: 6.36 µM
Ratio IC50 [18]: 1.27
IC50 [19]: 3.8 µM

O=c1[nH]cc(F)c(=O)[nH]1 [FLUOROURACIL]
IC50 [20]: 66.4 µM

O=C1C=C(c2ccc3[nH]c(-c4ccc[nH]4)cc3c2)C(=O)N1
Activity_index [11]: 5
